From PubChem BioAssay AID1645871
Square brackets hold non-standard residues; d marks the D form. Peptide text beside a SMILES is read from it. ξ: configuration not given here. ξLac(3-iPr) = CC(C)CC(O)C(=O)O; NMeV = CN[CH](C(=O)O)C(C)C; NMeA = CN[CH](C)C(=O)O; βAla = NCCC(=O)O

Conditions: pampa; pH 5.0; 30.0 min; 50.0 µM

Row | Compound | Papp [×10⁻⁶ cm/s]
1 | Cc1nc(-c2ccccc2)cc([C@H]2CN3CC[C@H]2C[C@@H]3CNC2CCOCC2)n1 | 12.9
2 | COc1ccc(NC(=O)c2ccc[nH]2)cc1S(=O)(=O)Nc1ccc(Br)cc1 | > 1000
3 | C[C@H]1CCC[C@H](O)CCC/C=C/c2cc(O)cc(O)c2C(=O)O1 | 795
4 | Cc1nc([C@](C)(O)CO)sc1-c1cnc(N)c(O[C@H](C)c2cc(F)ccc2-n2nccn2)c1 | 322
5 | COc1ncc(-c2n[nH]c3c2CC(=O)N(c2ccccc2)C3)cn1 | 42.5
6 | c1ccc(CNc2cc3c(cn2)CN(Cc2cccnc2)CCN3)cc1 | 15.8
7 | COc1ccc(-n2nc(C3CCCN(C(=O)Nc4ccccc4)C3)[nH]c2=O)cc1 (configuration not stated) | 315
8 | COc1ccccc1N1CCN(CCN(C(=O)c2ccc(I)cc2)c2ccccn2)CC1 | 758
9 | CC(C)Oc1ccc(C(=O)Nc2ccc3c(c2)CCCN3C(=O)c2cccs2)cc1 | 800
10 | O=C(O)c1cnc(-c2ccc(F)cc2)nc1-c1ccncc1 | 38.3
11 | C[C@@H](O)CNC(C)(C)CC(=O)N[C@@H]1CCc2ccccc2N(Cc2ccc(-c3ccccc3-c3nn[nH]n3)cc2)C1=O | 5.85
12 | CC(=O)Nc1ccc(CN2CCc3nc(C(C)C)nc(-c4ccc(Cl)cc4)c3CC2)cc1 | 476
13 | CCOc1cc(-c2nccc3cc(OC)c(OC)cc23)cc(OCC)c1OCC | > 1000
14 | CCOC(=O)C1=C(CN(CC)Cc2ccccc2)NC(=O)NC1c1ccc(OC(C)C)cc1 (configuration not stated) | > 1000
15 | CCC(C)C1NC(=O)C2CCCN2C(=O)C(CC(C)C)OC(=O)CCNC(=O)C(C)N(C)C(=O)C(C(C)C)N(C)C1=O (configuration not stated) (cyclo([ξLac(3-iPr)]PI[NMeV][NMeA][βAla]); configuration not given here) | 74
16 | COc1ccc(-n2nc(C3CCCN(C(=O)Cc4ccccn4)C3)[nH]c2=O)cc1 (configuration not stated) | 71.4
17 | COC[C@@H]1CN(C(=O)c2n[nH]c3ccccc23)C[C@H]1c1nc(C)no1 | 37.8
18 | COc1ccc(-n2nc3c(N4CCCC(C(=O)NCCc5ccc(C)cc5)C4)nnc(C)c3c2C)cc1 (configuration not stated) | 467
19 | Cc1ccc2c(c1)N(S(=O)(=O)c1cc(-c3onc(C)c3C)ccc1C)CCO2 | 226
20 | CCn1cc(C(=O)N2CCN(c3cccc(Cl)c3)CC2)c2cc(OC)c(OC)cc2c1=O | 810
21 | O=C(Nc1ccc(Cl)cc1)C(NS(=O)(=O)c1cccs1)c1ccccc1 (configuration not stated) | 443
22 | CN1CCN(Cc2ccc(-c3ccc(C(C)(C)C#N)cc3)nc2)CC1 | 47.3
23 | COc1ccc(-c2ccc3ncc4c(c3c2)n(-c2ccc(N3CCNCC3)c(C(F)(F)F)c2)c(=O)n4C)cn1 | 153
24 | C=CCc1ccc(O)c(-c2ccc(O)c(CC=C)c2)c1 | 446

Row | Compound | Papp [×10⁻⁶ cm/s]
25 | COc1ccc(Cn2c(C(=O)O)c(CNCc3cccc(OC)c3)c3ccc(C)cc32)cc1 | 931
26 | Cc1cccc(-c2cc(NC(=O)c3ccccc3C)n(-c3ccccc3)n2)c1 | 786
27 | COCCNc1ncc(-c2cccc(O)c2)c2c1OCC2 | 77
28 | Fc1ccccc1-c1nc(NCc2ccc(-c3cccnc3)cc2)c2ccccc2n1 | > 1000
29 | COc1ccc(-n2nc(C)c([C@@H]3C=C[C@@H](NCc4ccc(N(C)C)cc4)C3)c2C)cc1 | > 1000
30 | COc1cc(Cl)c(C)cc1NS(=O)(=O)c1c(C)nc2sccn2c1=O | 802
31 | Oc1ccc(-c2nc(C3CC3)nc3c2CCN(CC2CCCCC2)CC3)cc1 | 190
32 | CCOc1cc(=O)n2c(c1C(=O)Nc1cc(OC)c(Cl)cc1OC)CCCC2 | 68.7
33 | CCOc1ccccc1C(=O)Nc1ncccc1C(=O)Nc1cccc(S(=O)(=O)C(F)(F)F)c1 | 656
34 | CC(=O)NCCNC(=O)c1ccc(-c2ncc3cnc(-c4cccc(F)c4)cn23)cc1 | 7.62
35 | COc1ccccc1Nc1ccnc(N2CCN(C(=O)c3ccc(C)cc3)CC2)n1 | > 1000
36 | COc1cc2c(c(OC)c1OC)-c1ccc(OC)c(=O)cc1[C@@H](NC(C)=O)CC2 | 4.51
37 | CC1CCN(S(=O)(=O)c2ccc3c(ccc(=O)n3CC(=O)NCc3ccc(Cl)cc3)c2)CC1 | 828
38 | O=C(O)c1cccc(-c2noc(-c3ccccc3F)n2)c1 | 892
39 | COc1ccc(-c2cc(C)nc3c(-c4ccc(OC)c(OC)c4)c(C)nn23)cc1 | > 1000
40 | Cc1noc([C@@H]2CN(C(=O)c3nn(C)c4ccccc34)C[C@H]2CO)n1 | 91.5
41 | CN1CCN(C(=O)Cc2c[nH]c3ncc(-c4ccccc4Oc4ccccc4)cc23)CC1 | 578
42 | Cc1cccc(N2CCN(c3nc4ccccc4c4nnc(C)n34)CC2)c1C | > 1000
43 | Cc1ccc(NC(=O)C(Cc2ccccc2)NS(=O)(=O)c2cccs2)cc1Cl (configuration not stated) | 570
44 | O=C(Nc1ccc(OC(F)(F)Cl)cc1)c1cnc(N2CC[C@@H](O)C2)c(-c2ccn[nH]2)c1 | 16.8
45 | CCOC(=O)c1ccc(N2C(=O)c3n[nH]c(-c4cccs4)c3C2c2ccc(Cl)cc2Cl)cc1 (configuration not stated) | 316
46 | COc1ccc(NC(=O)CCCc2nnc3n(CCC(C)C)c(=O)c4sccc4n23)cc1Cl | > 1000
47 | Cc1noc(C)c1-c1cc(-c2ccc3c(c2)C(=O)NC3)cn2cncc12 | 64.5
48 | COc1ccc(OC)c(CN2CCNc3cc(Nc4ccccc4)ncc3C2)c1 | 2.33

Row | Compound | Papp [×10⁻⁶ cm/s]
49 | CCC1=Nc2cc(C(=O)NCCCOC)ccc2Sc2ccc(Br)cc21 | > 1000
50 | CN1CCC(N(Cc2cccs2)c2ccccc2)CC1 | 254
51 | CC(=O)NCCNC[C@@H]1C=C(C)[C@H](Cc2nnc(-c3ccccc3)o2)C[C@H]1C(C)C | 25.8
52 | COc1ccc(-n2c(C)c(C(C)=O)c3cc(OC(=O)COc4ccccc4)ccc32)cc1 | > 1000
53 | O=C(COc1ccccc1)NCC(c1cccs1)S(=O)(=O)c1ccc(Cl)cc1 (configuration not stated) | 855
54 | Clc1cccc(COc2cncc(N3CCNCC3)n2)c1 | 742
55 | CCOc1ccc(S(=O)(=O)NCc2cccnc2)cc1NC(=O)c1ccccc1F | 278
56 | CCOC(=O)c1ccc(N2C(=O)c3n[nH]c(-c4ccco4)c3C2c2ccc(C)cc2)cc1 (configuration not stated) | 231
57 | O=C(NC[C@H]1Cn2c(-c3ccc(Cl)cc3)cnc2CO1)C1CCCC1 | 19.4
58 | CCCNC(=O)c1ccc2c(c1)N=C(C)c1c(C)ccc(C)c1S2 | > 1000
59 | CC1=C[C@@H](CNCc2cccnc2)[C@H](C(C)C)C[C@H]1Cc1nnc(-c2ccc([N+](=O)[O-])cc2)o1 | 984
60 | Cc1c(CN(C)c2cc(C3CC(O)C3)nc(N)n2)[nH]c2ccccc12 (configuration not stated) | 44.8
61 | Nc1c(C(=O)Nc2ccc(Cl)cc2)sc2nc3c(cc12)N1CCC3CC1 | 140
62 | O=C(Nc1ccc2c(N3CCOCC3)ncnc2c1)c1cccc(Br)c1 | 654
63 | Cc1ccc(CN2C(=O)C(O)(CC(=O)c3ccc(C)cc3)c3ccccc32)cc1 (configuration not stated) | 626
64 | COc1ccc(S(=O)(=O)N(CC(=O)Nc2ccc(C)cc2)c2ccc(C)cc2)cc1OC | 663
65 | O=C(NCc1ccc(S(=O)(=O)c2cccc(C(F)(F)F)c2)cc1)c1cnc2[nH]ncc2c1 | 362
66 | c1ccc(Nc2cc3c(cn2)CN(Cc2cccs2)CCN3)cc1 | 106
67 | CN(C)CC[C@@H](c1ccc(Cl)cc1)c1ccccn1 | 82.5
68 | COC[C@@H]1CN(C(=O)c2nn(C)c3ccccc23)C[C@H]1c1nc(C)no1 | 65.3
69 | NCC(=O)Nc1cncc(-c2nn3c(=O)cc(N4CCNCC4)nc3s2)c1 | 1.07
70 | CS(=O)(=O)CCNCc1ccc(-c2ccc3ncnc(Nc4ccc(OCc5cccc(F)c5)c(Cl)c4)c3c2)o1 | 69.7
71 | COc1cc2ncnc(Nc3ccc(Oc4ccccc4)cc3)c2cc1OC | 981
72 | CCN(C(=O)C(NS(=O)(=O)c1ccc(Br)s1)c1ccccc1)c1ccc(C)c(C)c1 (configuration not stated) | 110
